The record followed here is US5486516A, “Furopyrimidine derivatives” (DowElanco, priority 1993, dated 1996).

Assay [1] relates to Erysiphe graminis tritici (powdery mildew). Nature of the assay: Plant pathology screen (Test 1), powdery mildew on wheat. Particulars: Blumeria graminis, in Triticum aestivum, foliar, read-out: POWD MDEW control rating.
Procedure: (§5) The test compounds were formulated for application by dissolving 50 mg of the compound into 1.25 ml of solvent. The solvent was prepared by mixing 50 ml of "Tween 20" (polyoxyethylene (20) sorbitan monolaurate emulsifier) with 475 ml of acetone and 475 ml of ethanol. The solvent/compound solution was diluted to 125 ml with deionized water. The resulting formulation contains 400 ppm test chemical. Lower concentrations were obtained by serial dilution with the solvent-surfactant mixture.
The formulated test compounds were applied by foliar spray.
(§6) The formulated technical compounds were sprayed on all foliar surfaces of the host plants (or cut berry) to past run-off. Single pots of each host plant were placed on raised, revolving pedestals in a fume hood. Test solutions were sprayed on all foliar surfaces. All treatments were allowed to dry and the plants were inoculated with the appropriate pathogens within 2-4 hours.
(§7) The effectiveness of test compounds in controlling disease was rated using the following scale.
Assay [2] concerns Pseudoperonospora cubensis (downy mildew). The assay is described as follows: Plant pathology screen (Test 1), downy mildew on squash. To be noted: foliar, read-out: DOWN MDEW control rating.
Procedure: as §5
The formulated test compounds were applied by foliar spray. The following plant pathogens and their corresponding plants were employed.
as §6, §7
Assay [3] deals with Botrytis cinerea (gray mold). The assay is described as follows: Plant pathology screen (Test 1), gray mold on grape berries. To be noted: read-out: GRAY MOLD control rating.
Assay [4] concerns melon aphids (Aphis gossvpii Glover). Nature of the assay: Mite/insect screen, melon aphids. It is filed as in vivo. To be noted: Aphis, sprayed leaves, read-out: MA results (percent mortality); for mortality at 200 ppm: rate 200 ppm; for mortality at 400 ppm: rate 400 ppm. On the procedure: (§1) The compounds of Examples were tested for miticidal and insecticidal activity in the following mite/insect screen.
(§2) Each test compound was formulated by dissolving the compound in acetone/alcohol (50:50) mixture containing 23 g of "TOXIMUL R" (sulfonate/nonionic emulsifier blend) and 13 g of "TOXIMUL S" (sulfonate/nonionic emulsifier blend) per liter. These mixtures were then diluted with water to give the indicated concentrations.
(§3) Twospotted spider mites (Tetranychus urticae Koch) and melon aphids (Aphis gossvpii Glover) were introduced on squash cotyledons and allowed to establish on both leaf surfaces. Other plants in the same treatment pot were left uninfested. The leaves were then sprayed with 5 ml of test solution using a DeVilbiss atomizing sprayer at 10 psi. Both surfaces of the leaves were covered until runoff, and then allowed to dry for one hour. Two uninfested leaves were then excised and placed into a Petri dish containing larval southern armyworm (Spodopetra eridania Cramer).
(§4) After standard exposure periods, percent mortality and phytotoxicity were evaluated. […] The following abbreviations are used in Table 3:
MA refers to melon aphids.

Assay [5] deals with Puccinia recondita tritici (leaf rust). Nature of the assay: Plant pathology screen (Test 1), leaf rust on wheat. To be noted: in Triticum aestivum, foliar, read-out: LEAF RUST control rating.
Assay [6] relates to southern armyworm (Spodopetra eridania Cramer). Nature of the assay: Mite/insect screen, Southern armyworm. It is filed as in vivo. To be noted: Spodoptera eridania, sprayed leaves, read-out: SAW results (percent mortality); for mortality at 200 ppm: rate 200 ppm; for mortality at 400 ppm: rate 400 ppm. On the procedure: as §1, §2, §3, §4
SAW refers to Southern armyworm

Assay [7] relates to Twospotted spider mites (Tetranychus urticae Koch). The assay is described as follows: Mite/insect screen, twospotted spider mites. To be noted: Tetranychus urticae, sprayed leaves, read-out: SM results (percent mortality); for mortality at 200 ppm: rate 200 ppm; for mortality at 400 ppm: rate 400 ppm. The class given is in vivo. On the procedure: as §1, §2, §3, §4
SM refers to twospotted spider mites

In assay [8] the test system is Southern corn rootworm (Diabrotica undecimpuctata howardi Barber). Nature of the assay: Mite/insect screen, corn rootworm. Particulars: Diabrotica, soil, read-out: CRW results (percent mortality); for mortality at 12 ppm: CRW rate 12.00 ppm; for mortality at 24 ppm: CRW rate 24.00 ppm. It is filed as in vivo. On the procedure:
as §1, §2
Activity on Southern corn rootworm (Diabrotica undecimpuctata howardi Barber) was evaluated by adding two ml of tap water, a presoaked corn seed, and 15 g of dry sandy soil to a one ounce plastic container. The soil was treated with 1 mL of test solution containing a predetermined concentration of test compound. After six to 12 hours of drying, five 2-3 instar corn rootworm larvae were added to the individual cups, which were then capped and held at 23° C.
as §4
CRW refers to corn rootworm

In assay [9] the test system is Pyricularia oryzae (rice blast). The assay is described as follows: whole plant or invertebrate. The class given is in vivo. Particulars: foliar, read-out: RICE BLAST control rating.

As a reminder, the mortality is the share of the test organisms that died.

For `CCOc1ccc(CCNc2ncnc3oc(C)c(C)c23)cc1` [Example 3, 5,6-dimethyl-N-[2-(4-ethoxyphenyl)ethyl]furo[2,3-d]pyrimidin-4-amine], the pest or weed control at 400 µg/mL in [1] was in the range of 0 to 19%; in assay [2], 20 to 89%; in assay [3], 0 to 19%; in assay [5], 20 to 89%; in assay [9], 20 to 89%. Besides, the mortality at 200 ppm in [4] worked out at 0%; in assay [6], 30%; in assay [7], 0%. In addition, the mortality at 400 ppm in assay [4], in assay [6] and in assay [7] was 0% each time. Moreover, the mortality at 12 ppm in assay [8] was 0%. Also, the mortality at 24 ppm in assay [8] stood at 0%.
In the case of `COc1ccc(CCNc2ncnc3oc(C)cc23)cc1` [Example 4, N-(2-(4-methoxyphenyl)ethyl]-6-methylfuro(2,3-d]pyrimidin-4-amine], the pest or weed control at 400 µg/mL in assay [1] fell in the range of 0 to 19%; in assay [2], 0 to 19%; in assay [3] it was 0 to 19%; in assay [5], 90 to 100%; in assay [9], 20 to 89%. The mortality at 400 ppm in assay [4], in assay [6] and in [7] was 0% each time. The mortality at 24 ppm in assay [8] stood at 0%.
For the compound `Cc1cc2c(Oc3ccc(F)cc3)ncnc2o1` [Example 5, 6-methyl-4-(4-fluorophenoxy)furo[2,3-d]pyrimidine], the pest or weed control at 400 µg/mL is 20 to 89% in assay [1]; 0 to 19% in assay [2]; 0 to 19% in assay [3]; 90 to 100% in assay [5]; 0 to 19% in assay [9]. Further, the mortality at 200 ppm in assay [4], in [6] and in assay [7] was 0% throughout. Moreover, the mortality at 400 ppm in [4], in [6] and in assay [7] was 0% in each case. In addition, the mortality at 12 ppm in assay [8] is 0%. Further, the mortality at 24 ppm in [8] is 0%.
Regarding `Cc1cc2c(NCCc3ccc(Cl)cc3)ncnc2o1` [Example 6, 6-methyl-N-[2-(4-chlorophenyl)ethyl]furo(2,3-d]pyrimidin-4-amine], the pest or weed control at 400 µg/mL in assay [1], in [2], in [3], in [5] and in assay [9] was 0 to 19% in each case. Besides, the mortality at 200 ppm in [4], in [6] and in [7] was 0% throughout. Also, the mortality at 400 ppm in [4], in assay [6] and in assay [7] was 0% throughout. Besides, the mortality at 12 ppm in assay [8] is 0%. For the same compound, the mortality at 24 ppm in assay [8] turned out to be 0%.
Consider `Cc1cc2c(OCCc3ccc(-c4ccccc4)cc3)ncnc2o1` [Example 7, 4-[2-(1,1'-biphenyl)-4-ylethoxy]6-methylfuro[2,3-d]pyrimidine], for which the pest or weed control at 400 µg/mL was in the range of 0 to 19% in assay [1]; 20 to 89% in [2]; 0 to 19% in assay [3]; 0 to 19% in [5]; 20 to 89% in assay [9]. The mortality at 200 ppm in [4] came to 100%; in assay [6], 0%; in [7], 30%. The mortality at 400 ppm in assay [4], in assay [6] and in assay [7] was 0% each time. Further, in assay [8], the mortality at 12 ppm worked out at 0%. In addition, the mortality at 24 ppm in assay [8] is 0%.
Consider `Cc1cc2c(NCCc3cccc(C(F)(F)F)c3)ncnc2o1` [Example 8, 6-methyl-N-[2-[3-(trifluoromethyl)phenyl]ethyl]furo[2,3-d]pyrimidin-4-amine], for which the pest or weed control at 400 µg/mL in assay [1] fell in the range of 20 to 89%; in assay [2], 90 to 100%; in [3], 0 to 19%; in [5], 90 to 100%; in assay [9], 20 to 89%. The mortality at 200 ppm in [4], in assay [6] and in assay [7] was 0% each time. The mortality at 400 ppm in assay [4], in assay [6] and in assay [7] was 0% throughout. Also, in assay [8], the mortality at 12 ppm is 0%. For the same compound, in [8], the mortality at 24 ppm was determined as 0%.
Take `CCOc1ccc(CCNc2ncnc3oc(C)cc23)cc1` [Example 9, 6-methyl-N-[2-(4-ethoxyphenyl)ethyl]furo(2,3-d]pyrimidin-4-amine]: the pest or weed control at 400 µg/mL fell in the range of 0 to 19% in [1]; 20 to 89% in assay [2]; 0 to 19% in [3]; 90 to 100% in assay [5]; 0 to 19% in [9]. The mortality at 200 ppm in assay [4], in [6] and in [7] was 0% each time. Also, the mortality at 400 ppm in assay [4], in assay [6] and in [7] was 0% throughout. In addition, in [8], the mortality at 12 ppm was 0%. For the same compound, in assay [8], the mortality at 24 ppm was found to be 0%.
As for `Cc1oc2ncnc(NCCc3ccc(Cl)cc3)c2c1C` [Example 10, N-(2-(4-chlorophenyl)ethyl]-5,6-dimethylfuro[2,3-d]pyrimidin-4-amine], the pest or weed control at 400 µg/mL lay in the range of 0 to 19% in assay [1]; 20 to 89% in assay [2]; 0 to 19% in assay [3]; 20 to 89% in assay [5]; 90 to 100% in [9]. Further, the mortality at 200 ppm in assay [4], in [6] and in [7] was 0% throughout. Besides, the mortality at 400 ppm in assay [4], in assay [6] and in assay [7] was 0% in each case. In assay [8], the mortality at 12 ppm is 0%. Besides, the mortality at 24 ppm in assay [8] was 0%.
As for `Cc1coc2ncnc(NCCc3ccc(Cl)cc3)c12` [Example 11, 5-methyl-N-[2-(4-chlorophenyl)ethyl]furo[2,3-d]pyrimidin-4-amine], the pest or weed control at 400 µg/mL lay within 20 to 89% in assay [1]; 90 to 100% in assay [2]; 0 to 19% in assay [3]; 90 to 100% in assay [5]; 90 to 100% in [9]. Moreover, the mortality at 200 ppm came to 90% in assay [4], 0% in assay [6] and 30% in assay [7]. Besides, the mortality at 400 ppm in assay [4] was 0%; in [6], 60%; in assay [7], 0%. The mortality at 12 ppm in assay [8] was 0%. The mortality at 24 ppm in assay [8] came out at 0%.
`Cc1oc2ncnc(NCCc3ccccc3)c2c1C` [Example 12, 5,6-dimethyl-N-(2-phenylethyl)furo[2,3-d]pyrimidin-4-amine]: the pest or weed control at 400 µg/mL in assay [1] was 0 to 19%; in [2] it was 90 to 100%; in [3] it was 0 to 19%; in assay [5] it was 90 to 100%; in [9], 20 to 89%. For the same compound, the mortality at 200 ppm in [4], in assay [6] and in [7] was 0% throughout. The mortality at 400 ppm in assay [4], in [6] and in assay [7] was 0% each time. Besides, in assay [8], the mortality at 12 ppm was found to be 0%. Moreover, the mortality at 24 ppm in assay [8] was determined as 0%.
